Here are results for 15 compounds from US20040171680A1, “Treating Syndrome X with substituted tetralins and indanes” (priority 2002, published 2004).

One experiment concerns the target T1, PPARδ (Homo sapiens, UniProt Q03181).
T1 construct: a Gal4-Luciferase reporter is co-transfected
T1 sequence (Q03181 171-441 limits assumed): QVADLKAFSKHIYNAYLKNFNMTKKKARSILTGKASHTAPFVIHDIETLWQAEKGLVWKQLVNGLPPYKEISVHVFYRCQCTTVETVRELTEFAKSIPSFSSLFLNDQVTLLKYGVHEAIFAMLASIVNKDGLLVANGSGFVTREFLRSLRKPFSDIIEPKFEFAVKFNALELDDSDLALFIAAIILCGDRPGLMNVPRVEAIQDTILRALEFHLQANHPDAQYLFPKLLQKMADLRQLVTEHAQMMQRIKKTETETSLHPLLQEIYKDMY
In words: Transfection Assay for PPARδ Receptors (PPAR-Gal4 / Gal4-Luciferase reporter in HEK293 cells). It is filed as cell-based. Conditions: for PPARδ FI: fold induction, PPARδ standard: FI = 36.1; for EC50: values in square brackets. Here is the method:
Transfection Assay for PPARδ Receptors
HEK293 cells were grown in DMEM/F-12 Media supplemented with 10% FBS and glutamine (GIBCOBRL). The cells were co-transfected with DNA for PPAR-Gal4 receptor and Gal4-Luciferase Reporter using the DMRIE-C Reagent. On the following day, the DNA-containing medium were replaced with 5% Charcoal treated FBS growth medium. After six hours, cells were seeded in 96 well plate and incubated at 37° C. in CO2 incubator overnight. Cells were challenged by test compounds and incubated for 24 hours at 37° C. in 5% CO2 incubator. Luciferase activity was assayed using the Steady-Glo Luciferase Assay Kit from Promega. DMRIE-C Reagent was purchased from GIBCO Cat. No.10459-014. OPTI-MEM I Reduced Serum Medium was purchased from GIBCO Cat. No. 31985. Steady-Glo Luciferase Assay Kit was obtained from Promega Part# E254B.

For a further experiment, the target named is T2, PPARα (Rattus norvegicus, UniProt P37230).
T2 construct: H4IIE rat hepatoma cell line was obtained from ATCC; host or cells: H4IIE rat hepatoma cells
T2 sequence (P37230 1-468): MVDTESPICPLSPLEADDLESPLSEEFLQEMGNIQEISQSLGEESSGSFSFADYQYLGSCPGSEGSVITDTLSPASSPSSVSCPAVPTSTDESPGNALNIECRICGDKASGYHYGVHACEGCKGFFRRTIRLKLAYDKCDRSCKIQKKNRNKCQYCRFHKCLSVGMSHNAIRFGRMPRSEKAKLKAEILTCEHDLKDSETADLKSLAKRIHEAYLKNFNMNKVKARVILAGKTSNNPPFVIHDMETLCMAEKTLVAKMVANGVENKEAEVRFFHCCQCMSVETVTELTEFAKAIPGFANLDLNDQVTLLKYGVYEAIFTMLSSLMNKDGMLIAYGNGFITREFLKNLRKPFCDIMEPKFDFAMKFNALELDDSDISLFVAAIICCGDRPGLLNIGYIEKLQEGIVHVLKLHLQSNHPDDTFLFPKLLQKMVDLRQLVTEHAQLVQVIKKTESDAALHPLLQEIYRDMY
In words: HD bDNA Assay (HD gene induction). It is filed as cell-based. As to the method:
HD bDNA Assay H4IIE rat hepatoma cell line was obtained from ATCC. Cells were cultured in 175 cm^2 tissue culture flask or seeded in 96-well plate with (high serum content, 10% fetal bovine serum and 10% calf serum) culture medium and maintained at 37° C. and 5% CO2 throughout study. Twenty-four hours after the initial seeding of the 96-well plate by hand (approximate 100,000/well), the HD gene induction assay was initiated. Media was removed and replaced with 100 ul of low serum culture media (5% charcoal/dextran treated calf serum) containing vehicle (DMSO) or test compounds or standard. Cells returned to incubator for 24 hours culture. At the termination of the challenge, 50 ul lysis buffer with HD gene specific CE, LE, BL probes was added directly into each well to initiate the bDNA HD mRNA assay. The branched DNA assay was performed according to the manufacturer's protocol (Bayer Diagnostics; Emeryville. Calif.). At the end of the assay, the luminescence was quantitated in Dynex MLX microtiter plate luminometer. EC50's were determined by non-linear regression with a sigmoidal fit utilizing Graphpad Prism.

[1] abbreviates: H4IIE rat hepatoma cells, 24 hours, read-out: PPARα EC50.
The mark [2] stands for this setting: in section F, target not named there, values match the PPARα column, read-out: EC50.

Like-named read-outs stand apart in the source and are kept apart here.

Take `CCN(C(=O)Nc1cccc(OC(F)(F)F)c1)C1Cc2ccc(SC(C)(C)C(=O)O)cc2C1` (stereo not drawn) [Example 26, 2-{2-[1-Ethyl-3-(3-trifluoromethoxyphenyl)ureido]indan-5-ylsulfanyl}-2-methylpropionic acid]: the “PPARδ FI” value on PPARδ amounted to 2.1. At PPARα (setting [1]), the EC50 turned out to be 130 nM.

`CC(C)(Sc1ccc2c(c1)CC(N(CCCC1CCCC1)C(=O)Nc1ccc(OC(F)(F)F)cc1)C2)C(=O)O` (stereo not drawn) [Example 28, 2-{2-[1-(3-Cyclopentylpropyl)-3-(4-trifluoromethoxyphenyl)ureido]indan-5-ylsulfanyl}-2-methylpropionic acid]: on PPARδ, the “PPARδ FI” value stood at 8.2. For the same compound, on PPARα (setting [1]), the half-maximal effective concentration (EC50) stood at 323 nM.

For the compound `CCCN(C(=O)Nc1ccc(OC)cc1)C1Cc2ccc(SC(C)(C)C(=O)O)cc2C1` (stereo not drawn) [Example 32, 2-{2-[3-(4-Methoxyphenyl)-1-propylureido]indan-5-ylsulfanyl}-2-methylpropionic acid], the “PPARδ FI” value on PPARδ worked out at 1.5. Besides, at PPARα (setting [1]), the concentration for a half-maximal effect (EC50) amounted to 497 nM.

As to `CCCN(C(=O)Nc1cc(C)cc(C)c1)C1Cc2ccc(SC(C)(C)C(=O)O)cc2C1` (stereo not drawn) [Example 33, 2-{2-[3-(3,5-Dimethylphenyl)-1-propylureido]indan-5-ylsulfanyl}-2-methylpropionic acid], the “PPARδ FI” value on PPARδ is given as 0.8. For the same compound, the EC50 on PPARα (setting [1]) is 537 nM.

Regarding `CCCN(C(=O)Nc1ccc(C(F)(F)F)cc1)C1Cc2ccc(SC(C)(C)C(=O)O)cc2C1` (stereo not drawn) [Example 35, 2-Methyl-2-{2-[1-propyl-3-(4-trifluoromethylphenyl)ureido]indan-5-ylsulfanyl}-propionic acid], the “PPARδ FI” value at PPARδ came to 5.6. Besides, the half-maximal effective concentration (EC50) at PPARα (setting [1]) was 772 nM.

In the case of `CC(C)(Sc1ccc2c(c1)CC(N(CCCC1CCCC1)C(=O)Nc1ccccc1)C2)C(=O)O` (stereo not drawn) [Example 37, 2-{2-[1-(3-Cyclopentylpropyl)-3-phenylureido]indan-5-ylsulfanyl}-2-methylpropionic acid], on PPARδ, the “PPARδ FI” value was found to be 1.9. Further, on PPARα (setting [1]), the concentration for a half-maximal effect (EC50) amounted to 838 nM.

Take `CCCCCN(C(=O)Nc1ccc2ccccc2c1)C1Cc2ccc(SC(C)(C)C(=O)O)cc2C1` (stereo not drawn) [Example 39, 2-Methyl-2-[2-(3-naphthalen-2-yl-1-pentylureido)indan-5-ylsulfanyl]propionic acid]: on PPARδ, the “PPARδ FI” value is on record as 9.3. On PPARα (setting [1]), the concentration for a half-maximal effect (EC50) worked out at 1000 nM.

For the compound `CCCN(C(=O)Nc1ccc(OC(F)(F)F)cc1)C1CCc2ccc(SC(C)(C)C(=O)O)cc2C1` (stereo not drawn) [Example 46, 2-Methyl-2-{7-[1-propyl-3-(4-trifluoromethoxyphenyl)ureido}-5,6,7,8-tetrahydronaphthalen-2-ylsulfanyl}propionic acid], the “PPARδ FI” value on PPARδ is on record as 6.0. Moreover, the EC50 at PPARα (setting [1]) turned out to be 1390 nM.

Regarding `CCN(C(=O)Nc1ccc(OC(F)(F)F)cc1)C1CCc2cc(SC(C)(C)C(=O)O)c(OC)cc2C1` (stereo not drawn) [Example 47, 2-{6-[1-Ethyl-3-(4-trifluoromethoxyphenyl)ureido]-3-methoxy-5,6,7,8-tetrahydronaphthalen-2-ylsulfanyl}-2-methylpropionic acid], the EC50 on PPARδ was above 3000 nM; on PPARα (setting [2]), 45 nM.

In the case of `CCN(C(=O)Nc1ccc(OC(F)(F)F)cc1)C1CCc2cc(OC(C)(C)C(=O)O)ccc2C1` (stereo not drawn) [Example 48, 2-{6-[1-Ethyl-3-(4-trifluoromethoxyphenyl)ureido]-5,6,7,8-tetrahydronaphthalen-2-yloxy}-2-methylpropionic acid], the EC50 was above 3000 nM at PPARδ and 14 nM on PPARα (setting [1]).

On to `CCN(C(=O)Nc1ccc(OC(F)(F)F)cc1)C1CCc2cc(SC(C)(C)C(=O)O)c(Cl)cc2C1` (stereo not drawn) [Example 51, 2-{6-[1-Ethyl-3-(4-trifluoromethoxyphenyl)ureido]-3-chloro-5,6,7,8-tetrahydronaphthalen-2-ylsulfanyl}-2-methylpropionic acid], for which the concentration giving a half-maximal response (EC50) at PPARδ is above 10000 nM; at PPARα (setting [2]) it was 27 nM.

With `CCN(C(=O)Nc1ccc(OC(F)(F)F)cc1)C1CCc2cc(SC(C)(C)C(=O)O)c(Br)cc2C1` (stereo not drawn) [Example 52, 2-{6-[1-Ethyl-3-(4-trifluoromethoxyphenyl)ureido]-3-bromo-5,6,7,8-tetrahydronaphthalen-2-ylsulfanyl}-2-methylpropionic acid], the results for the EC50 at PPARδ and on PPARα (setting [2]) were above 3000 nM and 17 nM, respectively.

Take `CCN(C(=O)Nc1ccc(OC(F)(F)F)cc1)C1CCc2cc(SC(C)(C)C(=O)O)c(C)cc2C1` (stereo not drawn) [Example 53, 2-{6-[1-Ethyl-3-(4-trifluoromethoxyphenyl)ureido]-3-methyl-5,6,7,8-tetrahydronaphthalen-2-ylsulfanyl}-2-methylpropionic acid]: the EC50 at PPARδ amounted to 873 nM; at PPARα (setting [2]), 42 nM.

As to `CCN(C(=O)Nc1ccc(OC(F)(F)F)cc1)C1CCc2cc(SC(C)(C)C(=O)O)c(OC(F)(F)F)cc2C1` (stereo not drawn) [Example 54, 2-{6-[1-Ethyl-3-(4-trifluoromethoxyphenyl)ureido]-3-trifluoromethoxy-5,6,7,8-tetrahydronaphthalen-2-ylsulfanyl}-2-methylpropionic acid], the concentration for a half-maximal effect (EC50) on PPARδ was above 3000 nM; on PPARα (setting [2]), 131 nM.

Consider `CCN(C(=O)Nc1ccc(OC(F)(F)F)cc1)C1CCc2cc(SC(C)(C)C(=O)O)c(-c3ccccc3)cc2C1` (stereo not drawn) [Example 55, 2-{6-[1-Ethyl-3-(4-trifluoromethoxyphenyl)ureido]-3-phenyl-5,6,7,8-tetrahydronaphthalen-2-ylsulfanyl}-2-methylpropionic acid], for which the EC50 was 1720 nM at PPARδ and 545 nM on PPARα (setting [2]).
